Laboratory results: patent US20250026778A1 (TIUMBIO CO., LTD., priority 2021, published 2025)
Like-named read-outs stand apart in the source and are kept apart here.

Molecular target: T1, his-galectin-3 (Homo sapiens, UniProt P17931)
T1 construct: purchased Abcam
Experiment: TR-FRET assay (in vitro galectin-3 binding inhibitory activity test)
Details: compound at 20 μM, 60 nM his-galectin-3, 15 nM biotin-ASF
Protocol: TR-FRET Assay (In Vitro Galectin-3 Binding Inhibitory Activity Test)
TR-FRET assay was performed in ½ Area Plate-96 (PerkinElmer). Final concentrations of components in the assay were 60 nM his-galectin-3 (Abcam), 15 nM biotin-ASF (Axxora), 2 nM Mab anti-6×His Tb (Cisbio) and 20 nM SA-d2 (Cisbio). The reaction was performed in a buffer containing 25 mM HEPES, 100 mM NaCl, 0.005% Tween 20 and 0.05% BSA. 20 μL his-galectin-3 and 1 μL compound were mixed first, and then 20 μL biotin-ASF, 5 μL anti-His Tb and 5 μL SA-d2 were added in order. After incubation for at least 3.5 hours at RT, TR-FRET signals were measured at 615/665 nm […] wavelengths using a VICTOR Nivo (PerkinElmer). The positive control used DMSO instead of the compound, and the negative control excluded ASF-biotin. N-acetyl-D-lactosamine (LacNAc), an endogenous ligand unit of galectin-3, was evaluated together as a control substance to compare galectin-3 binding inhibitory activity.

[1] = Table 1, read-out: % Inhibitory activity (at 20 μM)
[2] = Table 2, read-out: % Inhibitory activity (at 20 μM)
[3] = read-out: % Inhibitory activity (at 20 μM), Table 1

T1 sequence (P17931 whole entry): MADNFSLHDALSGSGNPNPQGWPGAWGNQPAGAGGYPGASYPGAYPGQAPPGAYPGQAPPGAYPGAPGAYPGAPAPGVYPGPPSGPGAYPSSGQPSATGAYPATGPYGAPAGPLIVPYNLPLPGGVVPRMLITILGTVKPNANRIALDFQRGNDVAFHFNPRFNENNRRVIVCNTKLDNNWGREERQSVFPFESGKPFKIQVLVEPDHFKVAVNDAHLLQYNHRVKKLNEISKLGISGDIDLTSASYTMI

## COc1ccc2c(c1)CCC1(O2)O[C@H](CO)[C@H](O)[C@H](n2cc(-c3cc(F)c(F)c(F)c3)nn2)[C@H]1O (single isomer, unassigned) [Compound A10, (3′R,4'S,5′R,6′R)-6′-(hydroxymethyl)-6-methoxy-4′-(4-(3,4,5-trifluorophenyl)-1H-1,2,3-triazol-1-yl)-3′,4′,5′,6′-tetrahydrospiro[chromane-2,2′-pyran]-3′,5′-diol]
Table 1
  % Inhibitory activity (at 20 μM): D (inhibition rate was less than 25%)

## COc1ccc2c(c1)CCC1(O2)O[C@H](CO)[C@H](O)[C@H](n2cc(-c3cc(F)c(F)c(F)c3)nn2)[C@H]1O (single isomer, unassigned) [Compound A11, (3′R,4'S,5′R,6′R)-6′-(hydroxymethyl)-6-methoxy-4′-(4-(3,4,5-trifluorophenyl)-1H-1,2,3-triazol-1-yl)-3′,4′,5′,6′-tetrahydrospiro[chromane-2,2′-pyran]-3′,5′-diol]
[1]
  inhibition at 20 µM: 25 to 50%

## O=C1CCCC2(N1)O[C@H](CO)[C@H](O)[C@H](n1cc(-c3cc(F)c(F)c(F)c3)nn1)[C@H]2O (single isomer, unassigned) [Compound A89]
[1]
  inhibition at 20 µM: < 25%

## CC(C(=O)N[C@@H]1CCO[C@]12O[C@H](CO)[C@H](O)[C@H](n1cc(-c3cc(F)c(F)c(F)c3)nn1)[C@H]2O)c1cccc(Cl)c1 (single isomer, unassigned) [Compound A167]
Table 2
  % Inhibitory activity (at 20 μM): C (inhibition rate was 25%˜ to 50%˜ (exclusive of 50%))

## CC(C(=O)N[C@@H]1CCO[C@]12O[C@H](CO)[C@H](O)[C@H](n1cc(-c3cc(F)c(F)c(F)c3)nn1)[C@H]2O)c1cccc(Cl)c1 (single isomer, unassigned) [Compound A168]
Table 2
  % Inhibitory activity (at 20 μM): B (inhibition rate was 50%0 to 7500 (exclusive of 75%))

## CC1CO[C@@]2(C1)O[C@H](CO)[C@H](O)[C@H](n1cc(-c3cc(F)c(F)c(F)c3)nn1)[C@H]2OC(=O)c1ccccn1 (single isomer, unassigned) [Compound A235]
[2]
  inhibition at 20 µM: 50 to 75%

## CC1CO[C@@]2(C1)O[C@H](CO)[C@H](O)[C@H](n1cc(-c3cc(F)c(F)c(F)c3)nn1)[C@H]2OCC(=O)O (single isomer, unassigned) [Compound A236]
[2]
  inhibition at 20 µM: 50 to 75%

## OC[C@H]1O[C@@]2(CCCO2)C(O)[C@@H](n2cc(-c3cc(F)c(F)c(F)c3)nn2)[C@H]1O (stereo in doubt) [Compound A41, (5S,7R,8R,9S,10R)-7-(hydroxymethyl)-9-(4-(3,4,5-trifluorophenyl)-1H-1,2,3-triazol-1-yl)-1,6-dioxaspiro[4.5]decane-8,10-diol]
[3]
  inhibition at 20 µM: < 25%

## O=C(OC1[C@@H](n2cc(-c3cc(F)c(F)c(F)c3)nn2)[C@@H](O)[C@@H](CO)O[C@@]12CCCO2)c1cccnc1 (stereo in doubt) [Compound A75, (5S,7R,8R,9S,10S)-8-hydroxy-7-(hydroxymethyl)-9-(4-(3,4,5-trifluorophenyl)-1H-1,2,3-triazol-1-yl)-1,6-dioxaspiro[4.5]decan-10-yl nicotinate]
[3]
  inhibition at 20 µM: 25 to 50%
read-out: % Inhibitory activity (at 20 μM), Table 3, found values
  inhibition at 20 µM: 32%

## COc1ccc2c(c1)CC[C@]1(O2)O[C@H](CO)[C@H](O)[C@H](OCc2cc3c(F)c(F)ccc3oc2=O)[C@H]1O [Compound A08, 3-((((2R,3′R,4'S,5'S,6′R)-3′,5′-dihydroxy-6′-(hydroxymethyl)-6-methoxy-3′,4′,5′,6′-tetrahydrospiro[chromane-2,2′-pyran]-4′-yl)oxy)methyl)-5,6-difluoro-2H-chromen-2-one]
[1]
  inhibition at 20 µM: < 25%
Table 3, found values, read-out: % Inhibitory activity (at 20 μM)
  inhibition at 20 µM: 21.8%

## O=c1oc2ccc(F)c(F)c2cc1CO[C@H]1[C@@H](O)[C@@H](CO)O[C@@]2(CCCO2)[C@@H]1O [Compound A09, 3-((((5S,7R,8S,9S,10R)-8,10-dihydroxy-7-(hydroxymethyl)-1,6-dioxaspiro[4.5]decan-9-yl)oxy)methyl)-5,6-difluoro-2H-chromen-2-one]
[1]
  inhibition at 20 µM: < 25%
